In ChEMBL document CHEMBL1201862, “PubChem BioAssay data set” (2004):
Calls of active or inactive are those of the source.

Key:
[1] = target: Nucleotide-binding oligomerization domain-containing protein 1 (Homo sapiens, UniProt Q9Y239); assay: SAR analysis of compounds that inhibit NOD1 - Set 3. [Related pubchem assays (depositor defined):AID1566, AID1575, AID1578, AID1849, AID1852, AID2333, AID2335, AID2466]; type: functional
[2] = target: Nucleotide-binding oligomerization domain-containing protein 2 (Homo sapiens, UniProt Q9HC29); assay: inhibition of MDP-driven NOD2 NF-kB reporter – cell-based, set 3, SAR follow-up (AID 2799); type: functional
Chain of Nucleotide-binding oligomerization domain-containing protein 2 (Q9HC29 whole entry, the tested form may be a part): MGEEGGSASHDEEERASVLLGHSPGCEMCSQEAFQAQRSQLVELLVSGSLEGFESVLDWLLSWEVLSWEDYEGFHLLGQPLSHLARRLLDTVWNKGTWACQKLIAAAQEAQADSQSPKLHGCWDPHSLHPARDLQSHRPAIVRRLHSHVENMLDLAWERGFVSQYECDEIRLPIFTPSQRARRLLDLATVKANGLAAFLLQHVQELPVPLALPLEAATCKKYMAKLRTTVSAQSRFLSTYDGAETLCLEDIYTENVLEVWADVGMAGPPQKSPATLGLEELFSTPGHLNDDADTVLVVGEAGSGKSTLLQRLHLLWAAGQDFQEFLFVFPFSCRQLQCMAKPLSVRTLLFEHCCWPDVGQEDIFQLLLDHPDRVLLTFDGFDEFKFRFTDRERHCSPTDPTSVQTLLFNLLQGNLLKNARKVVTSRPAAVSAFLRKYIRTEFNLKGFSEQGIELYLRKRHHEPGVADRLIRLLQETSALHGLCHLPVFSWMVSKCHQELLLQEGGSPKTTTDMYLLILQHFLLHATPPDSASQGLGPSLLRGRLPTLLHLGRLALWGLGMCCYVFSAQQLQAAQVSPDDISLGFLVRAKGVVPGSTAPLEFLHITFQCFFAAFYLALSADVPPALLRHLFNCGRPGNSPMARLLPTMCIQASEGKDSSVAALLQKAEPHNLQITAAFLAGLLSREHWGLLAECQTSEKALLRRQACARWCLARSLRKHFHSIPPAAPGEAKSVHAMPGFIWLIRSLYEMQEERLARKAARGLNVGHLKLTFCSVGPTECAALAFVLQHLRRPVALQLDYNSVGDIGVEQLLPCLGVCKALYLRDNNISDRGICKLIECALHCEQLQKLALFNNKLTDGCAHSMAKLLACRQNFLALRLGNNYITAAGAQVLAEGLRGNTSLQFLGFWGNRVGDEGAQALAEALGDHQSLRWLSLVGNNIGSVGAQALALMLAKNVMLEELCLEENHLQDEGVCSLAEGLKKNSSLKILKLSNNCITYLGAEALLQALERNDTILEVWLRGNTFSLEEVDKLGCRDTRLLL

HEK293 = assay: SAR analysis of compounds that are cytotoxic to HEK293 - Set 3. [Related pubchem assays (depositor defined):AID1575, AID1578, AID1848, AID1849, AID2001, AID2333, AID2334, AID2335, AID2337, AID2469]; type: functional, cell-based; conditions: Homo sapiens
Tumor necrosis factor = Tumor necrosis factor (Homo sapiens, UniProt P01375); assay: analog potency on TNFa NF-kB signaling – cell-based, set 3, SAR follow-up (AID 2801); type: functional
Chain of Tumor necrosis factor (P01375 whole entry): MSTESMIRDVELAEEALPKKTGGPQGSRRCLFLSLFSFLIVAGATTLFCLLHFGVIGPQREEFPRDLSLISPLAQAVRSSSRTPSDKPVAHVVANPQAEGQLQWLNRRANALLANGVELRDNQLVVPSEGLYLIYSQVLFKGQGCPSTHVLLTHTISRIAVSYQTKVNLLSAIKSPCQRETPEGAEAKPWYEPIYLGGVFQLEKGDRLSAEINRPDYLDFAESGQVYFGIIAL

[3] = target: Intestinal-type alkaline phosphatase (Mus musculus, UniProt P24822); assay: PubChem AID 488785; type: functional
Chain of Intestinal-type alkaline phosphatase (Mus musculus, UniProt P24822) (P24822 whole entry): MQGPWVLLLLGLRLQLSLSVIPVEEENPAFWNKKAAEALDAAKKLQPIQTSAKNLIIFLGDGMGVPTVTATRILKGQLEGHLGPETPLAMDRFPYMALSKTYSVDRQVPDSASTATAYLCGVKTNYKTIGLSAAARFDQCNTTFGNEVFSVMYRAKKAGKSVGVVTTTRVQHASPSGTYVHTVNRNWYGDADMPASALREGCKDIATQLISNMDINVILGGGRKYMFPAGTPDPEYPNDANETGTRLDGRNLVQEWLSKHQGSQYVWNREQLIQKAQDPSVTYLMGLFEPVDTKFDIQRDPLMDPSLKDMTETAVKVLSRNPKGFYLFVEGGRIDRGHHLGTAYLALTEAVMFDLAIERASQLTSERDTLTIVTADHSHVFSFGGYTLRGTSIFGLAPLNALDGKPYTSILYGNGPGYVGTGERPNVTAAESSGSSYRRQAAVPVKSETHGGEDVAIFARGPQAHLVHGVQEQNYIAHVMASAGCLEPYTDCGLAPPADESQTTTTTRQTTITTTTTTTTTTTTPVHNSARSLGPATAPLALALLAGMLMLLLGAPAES

[4] = target: T1, Alkaline phosphatase, tissue-nonspecific isozyme (Homo sapiens, UniProt P05186); assay: TNAP enzyme inhibition by screening hits, dose response, selectivity assay for mouse IAP inhibitor project, biochemical, human TNAP, uHTS hits (AID 488906); type: functional
T1 sequence (P05186 whole entry): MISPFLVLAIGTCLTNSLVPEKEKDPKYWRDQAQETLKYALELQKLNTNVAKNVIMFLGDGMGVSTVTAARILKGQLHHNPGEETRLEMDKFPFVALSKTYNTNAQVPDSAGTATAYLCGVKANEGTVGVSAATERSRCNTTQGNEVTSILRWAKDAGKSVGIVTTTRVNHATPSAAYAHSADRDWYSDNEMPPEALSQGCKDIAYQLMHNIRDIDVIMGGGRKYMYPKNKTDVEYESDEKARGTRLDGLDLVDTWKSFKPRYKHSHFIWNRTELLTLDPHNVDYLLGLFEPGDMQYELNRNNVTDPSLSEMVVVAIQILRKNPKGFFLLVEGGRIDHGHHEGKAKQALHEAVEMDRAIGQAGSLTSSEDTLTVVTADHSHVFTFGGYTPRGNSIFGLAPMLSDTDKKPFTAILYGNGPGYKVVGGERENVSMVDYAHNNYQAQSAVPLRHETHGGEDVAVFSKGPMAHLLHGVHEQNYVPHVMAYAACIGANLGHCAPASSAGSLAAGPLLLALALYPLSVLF

[5] = target: Intestinal-type alkaline phosphatase (Homo sapiens, UniProt P09923); assay: inhibition of human intestinal alkaline phosphatase – biochemical, dose response (AID 488876); type: functional
Chain of Intestinal-type alkaline phosphatase (Homo sapiens, UniProt P09923) (P09923 whole entry): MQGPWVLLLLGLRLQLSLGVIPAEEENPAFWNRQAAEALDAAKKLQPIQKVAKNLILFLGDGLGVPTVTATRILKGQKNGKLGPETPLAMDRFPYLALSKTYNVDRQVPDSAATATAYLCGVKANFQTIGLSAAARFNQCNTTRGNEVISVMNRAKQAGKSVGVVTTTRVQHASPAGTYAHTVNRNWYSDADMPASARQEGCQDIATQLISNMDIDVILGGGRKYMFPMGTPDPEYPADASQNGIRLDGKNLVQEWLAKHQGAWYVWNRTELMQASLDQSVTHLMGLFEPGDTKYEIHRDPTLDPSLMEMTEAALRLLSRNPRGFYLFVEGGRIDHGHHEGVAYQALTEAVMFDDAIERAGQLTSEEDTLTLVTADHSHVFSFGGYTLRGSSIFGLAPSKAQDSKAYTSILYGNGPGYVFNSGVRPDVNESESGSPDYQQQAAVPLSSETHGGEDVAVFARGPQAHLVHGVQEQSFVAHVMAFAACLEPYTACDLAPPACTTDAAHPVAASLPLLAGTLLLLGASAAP

BJ [6] = assay: cells; type: functional, cell-based; conditions: Homo sapiens
BJ [7] = assay: BJ-TERT fibroblast viability loss – cell-based, RAS-independent, luminescence, dose response (AID 1933); type: functional; conditions: Homo sapiens
[8] = DRD fibroblast viability loss – cell-based, non-viral oncogenic, luminescence, dose response (AID 1934); type: functional; conditions: Homo sapiens
BJ [9] = assay: BJ-TERT-LT-ST fibroblast viability loss – cell-based, RAS-independent, luminescence, dose response (AID 1935); type: functional; conditions: Homo sapiens;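 note: BJ fibroblasts immortalized with TERT plus LT and ST oncogenes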
[10] = target: G-protein coupled receptor 55 (Homo sapiens, UniProt Q9Y2T6); assay: blockers of GPR55 signalling, imaged – imaging, image-based, counter-screen for GPR35 antagonist project, SAR follow-up (AID 2397); type: functional
Chain of G-protein coupled receptor 55 (Q9Y2T6 whole entry): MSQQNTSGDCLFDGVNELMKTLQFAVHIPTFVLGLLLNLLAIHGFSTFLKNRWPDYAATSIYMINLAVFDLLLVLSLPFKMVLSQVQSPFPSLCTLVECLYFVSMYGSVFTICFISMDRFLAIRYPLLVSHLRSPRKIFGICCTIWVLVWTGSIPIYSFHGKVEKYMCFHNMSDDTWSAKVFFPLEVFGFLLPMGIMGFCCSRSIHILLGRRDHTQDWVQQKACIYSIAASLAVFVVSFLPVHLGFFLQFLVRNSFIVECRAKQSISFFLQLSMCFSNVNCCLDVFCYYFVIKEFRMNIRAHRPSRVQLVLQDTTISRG

[11] = HEK-293T cell viability reduction – luminescence, B-cell screen hits, cytotoxicity control for BCR NF-kB inhibitor project, dose response (AID 489021); type: functional, cell-based;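 note: HEK-293T cells carrying an NF-kB luciferase reporter; cells exposed to compound for about 14 hours before viability readout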
[12] = target: G-protein coupled receptor 35 (Homo sapiens, UniProt Q9HC97); assay: SAR Analysis for the identification of Selective Antagonists of ERK1/2 Activity in GPR35-Overexpressing U2OS Cells. [Related pubchem assays: 2079, 2058 ]; type: functional, cell-based
Chain of G-protein coupled receptor 35 (Q9HC97 whole entry): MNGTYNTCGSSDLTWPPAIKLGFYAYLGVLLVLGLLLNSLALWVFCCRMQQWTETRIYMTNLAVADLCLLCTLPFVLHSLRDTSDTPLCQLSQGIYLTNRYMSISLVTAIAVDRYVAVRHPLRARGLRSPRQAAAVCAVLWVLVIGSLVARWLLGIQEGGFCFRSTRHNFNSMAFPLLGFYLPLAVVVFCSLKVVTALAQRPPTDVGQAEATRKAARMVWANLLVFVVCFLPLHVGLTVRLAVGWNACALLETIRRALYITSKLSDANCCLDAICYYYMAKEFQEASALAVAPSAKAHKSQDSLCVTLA

[13] = target: Signal transducer and activator of transcription 1-alpha/beta (Homo sapiens, UniProt P42224); assay: STAT3 blockade with qPCR and toxicity readouts – cell-based, STAT1 panel, cytotoxicity, late-stage follow-up, panel member STAT1 Inhibition (AID 2078)
Chain of Signal transducer and activator of transcription 1-alpha/beta (P42224 whole entry): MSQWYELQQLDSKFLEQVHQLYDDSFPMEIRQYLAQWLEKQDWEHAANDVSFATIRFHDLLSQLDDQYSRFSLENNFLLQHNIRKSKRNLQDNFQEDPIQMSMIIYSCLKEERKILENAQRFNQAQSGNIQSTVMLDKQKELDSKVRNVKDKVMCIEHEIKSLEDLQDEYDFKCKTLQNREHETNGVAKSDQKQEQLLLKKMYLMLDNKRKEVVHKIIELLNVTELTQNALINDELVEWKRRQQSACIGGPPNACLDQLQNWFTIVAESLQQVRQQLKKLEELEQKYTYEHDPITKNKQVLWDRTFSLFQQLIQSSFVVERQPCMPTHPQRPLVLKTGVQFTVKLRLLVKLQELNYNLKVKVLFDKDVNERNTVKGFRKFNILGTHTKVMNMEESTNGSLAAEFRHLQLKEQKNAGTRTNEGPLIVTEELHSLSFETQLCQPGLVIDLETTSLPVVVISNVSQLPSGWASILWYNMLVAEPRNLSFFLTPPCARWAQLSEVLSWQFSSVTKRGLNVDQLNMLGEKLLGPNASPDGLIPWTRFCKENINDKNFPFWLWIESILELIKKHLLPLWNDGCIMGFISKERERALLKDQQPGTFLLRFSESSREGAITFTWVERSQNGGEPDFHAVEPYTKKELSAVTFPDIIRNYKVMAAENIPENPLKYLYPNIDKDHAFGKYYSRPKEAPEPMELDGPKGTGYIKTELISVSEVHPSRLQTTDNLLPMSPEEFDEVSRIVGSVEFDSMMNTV

[14] = target: Signal transducer and activator of transcription 3 (Homo sapiens, UniProt P40763); assay: STAT3 blockade with qPCR and toxicity readouts – cell-based, STAT1 panel, cytotoxicity, late-stage follow-up, panel member STAT3 Inhibition (AID 2078)
Chain of Signal transducer and activator of transcription 3 (P40763 whole entry): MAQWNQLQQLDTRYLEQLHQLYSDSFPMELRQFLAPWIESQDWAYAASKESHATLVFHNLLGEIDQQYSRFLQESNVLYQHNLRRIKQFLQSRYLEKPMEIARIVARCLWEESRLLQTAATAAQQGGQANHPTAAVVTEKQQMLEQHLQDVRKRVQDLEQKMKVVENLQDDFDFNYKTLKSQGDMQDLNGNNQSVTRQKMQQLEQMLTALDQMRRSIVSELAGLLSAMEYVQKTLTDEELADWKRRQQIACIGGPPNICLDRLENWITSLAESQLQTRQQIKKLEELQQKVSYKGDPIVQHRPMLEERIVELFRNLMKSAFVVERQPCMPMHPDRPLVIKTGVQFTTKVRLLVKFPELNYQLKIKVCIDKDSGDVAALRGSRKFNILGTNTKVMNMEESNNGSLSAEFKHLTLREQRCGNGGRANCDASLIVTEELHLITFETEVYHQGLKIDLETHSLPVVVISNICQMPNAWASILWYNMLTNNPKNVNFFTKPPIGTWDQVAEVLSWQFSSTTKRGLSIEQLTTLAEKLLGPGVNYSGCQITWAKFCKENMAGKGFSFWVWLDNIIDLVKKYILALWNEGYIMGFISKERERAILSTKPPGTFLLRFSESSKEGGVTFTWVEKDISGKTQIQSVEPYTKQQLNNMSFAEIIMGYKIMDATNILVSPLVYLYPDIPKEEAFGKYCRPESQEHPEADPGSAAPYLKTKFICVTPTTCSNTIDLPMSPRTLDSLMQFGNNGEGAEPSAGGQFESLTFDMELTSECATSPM

SMILES: CC(C)c1ccc(S(=O)(=O)n2c(N)nc3ccccc32)cc1
- IC50 [1]: 0.495 µM (active)
- IC50 [2]: > 20 µM (inactive)
- IC50 (HEK293): > 20 µM (inactive)
- IC50 (Tumor necrosis factor): > 20 µM (inactive)

SMILES: CC(C)=CCc1c(O)c(CC=C(C)C)c2c(c1O)-c1cc(O)c(O)cc1CC2
- IC50 [3]: 5.45 µM (active)
- IC50 [4]: > 100 µM (inactive)
- IC50 [5]: > 100 µM (inactive)
- EC50 (BJ [6]): > 150 µM (not active)
- EC50 (BJ [7]): 8.58 µM (inconclusive)
- EC50 [8]: 14.7 µM (active)
- EC50 (BJ [9]): > 75 µM (inconclusive)

SMILES: COc1ccc(/C=C2/SC(=S)N(CCCC(=O)Nc3ccc(O)cc3)C2=O)cc1
- IC50 [10]: > 32 µM (inactive)
- IC50 [11]: > 80 µM (inactive)
- IC50 [12]: > 32 µM (not active)

SMILES: c1ccc(CC2CCN(c3ncnc4sc(-c5ccccc5)cc34)CC2)cc1
- IC50 [13]: > 55.7 µM (inactive)
- IC50 [14]: > 55.7 µM (inactive)
